The results in this text go back to PMC6704710, “Preclinical evaluation of 3D185, a novel potent inhibitor of FGFR1/2/3 and CSF-1R, in FGFR-dependent and macrophage-dominant cancer models” (Journal of Experimental & Clinical Cancer Research : CR, 2019).

SMILES strings stand for the structures.

Holding throughout (test): Eurofins kinase panel
Holding throughout (format): biochemical
Common to all, as to details: read-out: Inhibition rate (%)

The target of assay [1] is T1, CLK4(h) (Homo sapiens, UniProt Q9HAZ1).
T1 construct: purchased Eurofins (KinaseProfiler)

The target of assay [2] is T2, CaMKIß(h) (Homo sapiens, UniProt Q6P2M8).
T2 construct: purchased Eurofins (KinaseProfiler)

The target of assay [3] is T3, Cdc7/cyclinB1(h) (Homo sapiens, UniProt O00311).
T3 construct: purchased Eurofins (KinaseProfiler)

The target of assay [4] is T4, MYO3B(h) (Homo sapiens, UniProt Q8WXR4).
T4 construct: purchased Eurofins (KinaseProfiler)
T4 sequence (Q8WXR4 1-1341): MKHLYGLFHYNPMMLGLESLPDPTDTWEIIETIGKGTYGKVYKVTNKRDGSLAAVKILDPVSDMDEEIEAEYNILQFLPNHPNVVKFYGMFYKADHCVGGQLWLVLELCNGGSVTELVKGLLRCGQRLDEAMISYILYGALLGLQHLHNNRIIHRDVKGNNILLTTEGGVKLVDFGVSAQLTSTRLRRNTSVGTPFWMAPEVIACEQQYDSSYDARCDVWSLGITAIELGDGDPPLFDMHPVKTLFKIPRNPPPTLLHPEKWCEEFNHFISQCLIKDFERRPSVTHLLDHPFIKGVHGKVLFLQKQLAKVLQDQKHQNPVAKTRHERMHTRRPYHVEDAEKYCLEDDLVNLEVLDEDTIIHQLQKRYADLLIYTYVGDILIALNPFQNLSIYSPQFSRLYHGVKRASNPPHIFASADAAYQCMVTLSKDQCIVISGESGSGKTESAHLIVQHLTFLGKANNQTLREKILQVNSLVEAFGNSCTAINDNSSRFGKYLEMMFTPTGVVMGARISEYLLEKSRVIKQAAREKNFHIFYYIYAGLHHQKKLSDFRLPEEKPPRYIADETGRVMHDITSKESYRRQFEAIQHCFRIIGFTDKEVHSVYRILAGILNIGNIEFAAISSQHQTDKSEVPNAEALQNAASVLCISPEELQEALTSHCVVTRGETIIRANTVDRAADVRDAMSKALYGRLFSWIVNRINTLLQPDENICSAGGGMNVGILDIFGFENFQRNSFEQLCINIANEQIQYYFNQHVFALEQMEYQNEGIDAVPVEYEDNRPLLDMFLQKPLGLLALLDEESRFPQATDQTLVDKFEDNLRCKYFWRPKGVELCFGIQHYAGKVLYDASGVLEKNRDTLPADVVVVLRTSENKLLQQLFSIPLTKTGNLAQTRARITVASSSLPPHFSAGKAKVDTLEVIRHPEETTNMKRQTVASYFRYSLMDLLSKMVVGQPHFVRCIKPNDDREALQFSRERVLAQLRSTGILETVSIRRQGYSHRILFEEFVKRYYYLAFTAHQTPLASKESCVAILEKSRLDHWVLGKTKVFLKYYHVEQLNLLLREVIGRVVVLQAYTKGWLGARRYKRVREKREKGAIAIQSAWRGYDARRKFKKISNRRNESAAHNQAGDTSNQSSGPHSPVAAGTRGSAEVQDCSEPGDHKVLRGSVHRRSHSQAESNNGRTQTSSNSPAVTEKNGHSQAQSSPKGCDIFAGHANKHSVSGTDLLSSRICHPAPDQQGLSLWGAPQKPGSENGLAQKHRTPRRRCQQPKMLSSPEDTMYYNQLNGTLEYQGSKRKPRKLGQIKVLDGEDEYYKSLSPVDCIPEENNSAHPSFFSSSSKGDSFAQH

Assay [5] has as its target T5, PKA(h) (Homo sapiens, UniProt P17612).
T5 construct: purchased Eurofins (KinaseProfiler)

The target in assay [6] is T6, PKCβII(h) (Homo sapiens, UniProt P05771).
T6 construct: purchased Eurofins (KinaseProfiler)

Assay [7] deals with T7, PKCθ(h) (Homo sapiens, UniProt Q04759).
T7 construct: purchased Eurofins (KinaseProfiler)

In assay [8] the target is T8, ZAP-70(h) (Homo sapiens, UniProt P43403).
T8 construct: purchased Eurofins (KinaseProfiler)
T8 sequence (P43403 1-619): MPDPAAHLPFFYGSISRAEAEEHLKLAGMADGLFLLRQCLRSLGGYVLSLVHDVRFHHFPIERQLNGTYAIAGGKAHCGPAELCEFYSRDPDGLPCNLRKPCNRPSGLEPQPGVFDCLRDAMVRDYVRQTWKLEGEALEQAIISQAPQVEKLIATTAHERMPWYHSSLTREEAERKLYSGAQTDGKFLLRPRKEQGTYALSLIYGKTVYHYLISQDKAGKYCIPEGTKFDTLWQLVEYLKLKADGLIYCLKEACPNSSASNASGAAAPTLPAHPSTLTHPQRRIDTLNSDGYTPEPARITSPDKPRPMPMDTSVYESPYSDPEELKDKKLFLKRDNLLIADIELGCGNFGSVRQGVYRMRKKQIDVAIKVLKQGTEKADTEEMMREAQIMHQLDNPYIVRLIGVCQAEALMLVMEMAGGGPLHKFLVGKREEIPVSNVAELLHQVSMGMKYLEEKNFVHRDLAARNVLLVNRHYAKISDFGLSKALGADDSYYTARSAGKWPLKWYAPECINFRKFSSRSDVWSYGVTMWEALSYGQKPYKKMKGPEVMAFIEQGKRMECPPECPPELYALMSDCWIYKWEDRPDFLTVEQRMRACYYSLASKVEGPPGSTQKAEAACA

T6 sequence (P05771 1-673 isoform P05771-2): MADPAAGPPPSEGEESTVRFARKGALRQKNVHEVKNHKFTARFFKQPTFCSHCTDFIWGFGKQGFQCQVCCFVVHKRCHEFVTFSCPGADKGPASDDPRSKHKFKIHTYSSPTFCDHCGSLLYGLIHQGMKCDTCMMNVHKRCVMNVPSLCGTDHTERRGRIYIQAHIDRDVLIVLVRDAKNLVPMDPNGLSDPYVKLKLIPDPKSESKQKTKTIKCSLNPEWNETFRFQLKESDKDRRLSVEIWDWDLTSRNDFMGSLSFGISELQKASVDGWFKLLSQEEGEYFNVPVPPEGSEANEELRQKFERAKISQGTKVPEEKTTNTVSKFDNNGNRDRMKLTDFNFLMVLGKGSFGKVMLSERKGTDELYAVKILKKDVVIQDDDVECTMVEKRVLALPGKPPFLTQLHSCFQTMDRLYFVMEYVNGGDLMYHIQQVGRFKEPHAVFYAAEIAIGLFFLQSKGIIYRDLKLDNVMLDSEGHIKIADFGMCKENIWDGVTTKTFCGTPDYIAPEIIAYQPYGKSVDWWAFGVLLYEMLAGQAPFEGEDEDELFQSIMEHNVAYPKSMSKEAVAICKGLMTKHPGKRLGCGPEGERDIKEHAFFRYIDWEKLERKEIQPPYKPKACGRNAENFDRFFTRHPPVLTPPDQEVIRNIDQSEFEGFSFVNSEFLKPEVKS
T2 sequence (Q6P2M8 whole entry): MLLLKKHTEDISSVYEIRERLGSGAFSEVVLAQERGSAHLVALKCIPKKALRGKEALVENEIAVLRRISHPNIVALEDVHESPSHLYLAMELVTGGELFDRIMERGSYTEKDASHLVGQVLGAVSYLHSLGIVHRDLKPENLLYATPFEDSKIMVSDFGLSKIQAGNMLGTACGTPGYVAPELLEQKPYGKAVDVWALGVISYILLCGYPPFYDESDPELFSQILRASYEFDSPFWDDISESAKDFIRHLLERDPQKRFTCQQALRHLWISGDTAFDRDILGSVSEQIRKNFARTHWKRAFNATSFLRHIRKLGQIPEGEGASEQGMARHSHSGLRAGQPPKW
T1 sequence (Q9HAZ1 whole entry): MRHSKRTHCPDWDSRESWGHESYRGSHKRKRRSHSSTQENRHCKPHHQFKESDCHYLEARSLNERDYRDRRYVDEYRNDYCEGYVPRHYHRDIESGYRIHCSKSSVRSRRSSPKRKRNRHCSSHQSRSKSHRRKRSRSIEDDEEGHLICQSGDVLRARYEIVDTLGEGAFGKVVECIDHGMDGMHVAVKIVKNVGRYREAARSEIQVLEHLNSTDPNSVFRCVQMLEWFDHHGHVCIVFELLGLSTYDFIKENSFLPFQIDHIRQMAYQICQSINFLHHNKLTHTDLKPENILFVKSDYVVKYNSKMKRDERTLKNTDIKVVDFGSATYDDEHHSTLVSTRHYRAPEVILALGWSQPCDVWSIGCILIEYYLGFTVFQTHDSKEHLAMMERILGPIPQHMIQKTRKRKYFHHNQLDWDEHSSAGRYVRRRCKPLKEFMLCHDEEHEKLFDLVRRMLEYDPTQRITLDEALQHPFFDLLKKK
T7 sequence (Q04759 whole entry): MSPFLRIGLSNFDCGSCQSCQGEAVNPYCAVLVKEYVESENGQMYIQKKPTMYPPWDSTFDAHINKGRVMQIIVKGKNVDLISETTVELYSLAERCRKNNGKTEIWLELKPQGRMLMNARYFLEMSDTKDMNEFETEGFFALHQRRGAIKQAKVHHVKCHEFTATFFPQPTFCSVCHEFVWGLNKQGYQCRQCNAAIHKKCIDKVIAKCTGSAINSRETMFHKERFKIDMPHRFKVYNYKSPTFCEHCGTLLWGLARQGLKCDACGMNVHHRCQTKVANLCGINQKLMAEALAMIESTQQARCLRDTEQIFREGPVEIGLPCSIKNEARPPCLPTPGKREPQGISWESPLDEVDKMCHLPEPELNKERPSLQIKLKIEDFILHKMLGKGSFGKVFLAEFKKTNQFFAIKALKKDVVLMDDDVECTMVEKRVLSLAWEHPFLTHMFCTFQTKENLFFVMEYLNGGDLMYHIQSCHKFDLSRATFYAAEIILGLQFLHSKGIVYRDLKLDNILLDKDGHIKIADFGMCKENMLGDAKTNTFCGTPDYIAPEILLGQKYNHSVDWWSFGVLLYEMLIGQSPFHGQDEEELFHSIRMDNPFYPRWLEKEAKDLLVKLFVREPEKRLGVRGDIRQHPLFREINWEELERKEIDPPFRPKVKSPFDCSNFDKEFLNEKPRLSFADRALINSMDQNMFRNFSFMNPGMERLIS
T3 sequence (O00311 whole entry): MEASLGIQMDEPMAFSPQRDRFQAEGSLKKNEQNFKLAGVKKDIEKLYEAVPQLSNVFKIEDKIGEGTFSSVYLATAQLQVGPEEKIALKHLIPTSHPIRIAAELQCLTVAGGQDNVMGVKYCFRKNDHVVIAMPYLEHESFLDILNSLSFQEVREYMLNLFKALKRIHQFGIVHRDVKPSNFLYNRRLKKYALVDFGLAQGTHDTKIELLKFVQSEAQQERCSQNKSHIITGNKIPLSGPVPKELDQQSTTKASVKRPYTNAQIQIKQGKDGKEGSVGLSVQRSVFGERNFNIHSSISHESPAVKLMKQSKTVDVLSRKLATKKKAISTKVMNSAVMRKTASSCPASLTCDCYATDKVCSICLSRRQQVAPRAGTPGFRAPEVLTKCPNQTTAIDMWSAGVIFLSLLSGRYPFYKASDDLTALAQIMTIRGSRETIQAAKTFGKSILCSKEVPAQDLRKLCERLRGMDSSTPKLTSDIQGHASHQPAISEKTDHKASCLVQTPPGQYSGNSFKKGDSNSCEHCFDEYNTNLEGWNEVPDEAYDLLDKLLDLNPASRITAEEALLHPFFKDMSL

For the molecule `COc1cc(OC)c(Cl)c(-c2ccc3c(NC(=O)c4ccc(N5CCNC(C)(C)C5)cc4)n[nH]c3n2)c1Cl` [3D185], the inhibition at 0.01 µM is 5% in assay [1] (10 nM); -2% in assay [2] (10 nM); 5% in assay [3] (10 nM); -4% in assay [4] (10 nM); 5% in assay [5] (10 nM); -12% in assay [6] (10 nM). Besides, the inhibition at 0.01 µM in assay [7] (10 nM) is -3%; in assay [8] (10 nM), 12%. Further, the inhibition at 0.1 µM in assay [1] (100 nM) was 19%; in assay [2] (100 nM), 6%; in assay [3] (100 nM), -5%; in assay [4] (100 nM), 0%; in assay [5] (100 nM), -8%; in assay [6] (100 nM), -1%. The inhibition at 0.1 µM was -4% in assay [7] (100 nM) and 0% in assay [8] (100 nM). The inhibition at 1 µM in assay [1] (1000 nM) is 27%; in assay [2] (1000 nM), 32%; in assay [3] (1000 nM) it was 8%; in assay [4] (1000 nM), 7%; in assay [5] (1000 nM), 5%; in assay [6] (1000 nM), -8%. Moreover, the figures for the inhibition at 1 µM in assay [7] (1000 nM) and in assay [8] (1000 nM) were 1% and 8%, respectively.
